From patent publication US20230390371A1, “ANTI-TUMOR IMMUNITY INDUCES THE PRESENTATION OF ABERRANT PEPTIDES” (STICHTING HET NEDERLANDS KANKER INSTITUUT-ANTONI VAN …, priority 2020, published 2023)
Entries after “also recorded” stand apart in the source; their conditions may differ. Where a SMILES comes first, the peptide text is derived from it. The star is where a group is joined. Cbz = O=C(OCc1ccccc1)*

Experiments:
Assay type in all cases: cell-based, human
12T cells = assay: Ribosome profiling with diricore / bump analysis; conditions: IFNγ+IDOi
Excerpt: Preprocessing of FASTQ files consisted of adapter removal using cutadapt (available at doi.org/10.14806/ej.17.1.200) with the parameters (--quality-base=33-O7-e 0.15-m 20-q 5) and removal of rRNA and tRNA contaminants by means of alignment against a reference (rRNA reference data from GENCODE^61 v19: rRNA, MT_RNA, rRNA_pseudogene, and tRNA reference data from GtRNAdb) using bowtie2^62 with parameters (--seed 42−p1—local).
The actual alignment of pre-processed FASTQ files was done with TopHat2^63 and Bowtie2^62 against GRCh37/ hg19 and GENCODE v19/BASIC transcript with Ensembl coordinates using parameters (seed 42-n 2-m 1 --no-novel-juncs --no-novel-indels --no-coverage-search --segment-length 25). In a subsequent step the primary aligned reads filtered for a minimum mapping quality of 10. […]
The reads (FASTQ) from Riboseq experiments were aligned to human transcript assembly (gencode v19) after removal of low quality reads and the reads that align to tRNA and rRNA (refer methods section—Diricore). […]
BAM files were converted to BED using BEDTOOLS 68 and later file formats were edited using PERL scripts. Each gene was divided into 100 windows of equal length, and read (separately for every sample) at each window were quantified using BEDTOOLS. The array of reads, logged (base 2), were normalized between 0 to 1. […]

MD55A3 melanoma cells = assay: V5-ATF4(1-63)-His frameshift reporter, His-tag pulldown and V5-tag immunoblotting; conditions: IFNγ+IDOi, MD55A3 reporter cells
Excerpt: FIG. 3: W-Bumps are associated with disordered out-of-frame peptides, and shortage in tryptophan leads to frameshifting events. • (a) Bar-plots depicting total occurrences of alpha-helices, beta-sheets and turns for tryptophan-containing peptide sequences corresponding to W-Bumps (left) and all remaining peptide sequences (middle), and the difference in percentages (right). […] Tryptophan shortage, on the other hand, can lead to stalling on the tryptophan codon (bottom left panel), or could in theory induce frameshifting events, leading to aberrant peptide production (lower right panel). Since secondary structure of growing polypeptide chains is attained in the lower tunnel of the ribosome, the loss of an a-helical secondary structure in this tunnel could hamper ribosomal progression. (c) Line-plots depicting the probability of disorderedness of peptide sequences. The position of the tryptophan is indicated by the dashed line. […] The green line represents the average probability of disorderedness of all peptides (‘All tryptophan codons’, n=36508). A group of outlier candidates that show relatively ordered out-of-frame peptide sequences were selected for comparisons (‘Selected tryptophan codons’, n=94, red). (d) Line-plots depicting mean frequency of RPFs at single nucleotide resolution across all tryptophans (green) and the selected outlier set (red) from panel 3c. […]

MD55A3 cells = assay: Proteomic analysis of tryptophan-containing proteins with IFNγ and proteasome inhibition; conditions: combined treatment with IFNγ and MG132
Method: Frozen MD55A3 cell pellets were lysed, reduced and alkylated in heated guanidine (GuHCl) lysis buffer as described by Jersie-Christensen et al.^70. Proteins were digested with Lys-C (Wako) for 2 h at 37° C., enzyme/substrate ratio 1:100. The mixture was then diluted to 2 M GuHCl and digested overnight at 37° C. with trypsin (Sigma) in enzyme/substrate ratio 1:50. Digestion was quenched by the addition of TFA (final concentration 1%), after which the peptides were desalted on a Sep-Pak C18 cartridge (Waters, Massachusetts, USA). Samples were vacuum dried and stored at −80° C. until LC-MS/MS analysis.
Peptides were reconstituted in 2% formic acid and analyzed by nano LC-MS/MS on an Q Exactive HF-X Hybrid Quadrupole-Orbitrap Mass Spectrometer equipped with an EASY-NLC 1200 system (Thermo Scientific). […]
RAW files were analyzed by Proteome Discoverer (version 2.3.0.523, Thermo Scientific) using standard settings. […] Differentially expressed proteins were determined using a t-test (threshold: FDR 1% or FDR 5% and S0: 0.13). […]
To look at the downstream consequences of W-Bump formation, we assessed the impact of W-Bumps on protein expression by proteomic analysis following IFNγ induction. We first analyzed the differential protein expression in IFNγ-treated versus control cells (data not shown) and grouped proteins according to the number of tryptophan residues they contain (FIG. 2l). […]

[1] = system: peripheral blood mononuclear cells from healthy donors; assay: Immunogenicity in peripheral blood mononuclear cells from healthy donors

Question: For `Cn1cc(C[C@H](N)C(=O)O)c2ccccc21` [IDOi, 1-Methyl-L-tryptophan], which “accumulation of RPFs at the W-Bumps region / bumps” value (12T cells) is on record?
Answer: Its value is “rescued; also recorded: completely abolished”.

Question: And the “global redistribution of RPFs towards the translation initiation sites and enrichment of tryptophan codon signal at A-site” value (12T cells)?
Answer: The value was “negated”.

Question: And the IFNγ-induced frameshifting (MD55A3 melanoma cells)?
Answer: The IFNγ-induced frameshifting was “prevented”.

Question: With `CC(C)C[C@@H](C=O)NC(=O)[C@H](CC(C)C)NC(=O)[C@H](CC(C)C)NC(=O)OCc1ccccc1` [MG132] (Cbz-Leu-Leu-Leu-aldehyde) as the molecule, how does the “restoration of reduced levels of high-tryptophan containing proteins” value (MD55A3 cells) read?
Answer: Its value is “did not restore”.

Question: “GLLETHPALLL (SRSF3-based peptide) [SEQ ID NO:62, SRSF3-derived peptide presented by MDA-MB-231]” was tested. Which immunogenicity [1] did it give?
Answer: The immunogenicity was “showed immunogenicity”.

Question: Which immunogenicity [1] does the source give for “TLVEDLLEV (RFX1-based peptide) [SEQ ID NO:58, RFX1-derived peptide presented by MDA-MB-231]” here?
Answer: The immunogenicity was “showed immunogenicity”.

Question: Which immunogenicity [1] does the source give for “TVIGTLLEI (RHOBTB3-based peptide) [SEQ ID NO:61, RHOBTB3-derived peptide presented by MDA-MB-231]” here?
Answer: Its immunogenicity is “showed immunogenicity”.
